Marks after values point to notes of the source that are not given here.
Legend:
[1] = system: follicle stimulating hormone (FSH); assay: Serum FSH concentration (immunoradiometric assay), Example 2; format: in vivo, postmenopausal women; conditions: 25 μg E2, Week 12
Method: (§1) Maturation values of vaginal mucosal cells were assessed as an indicator of changes in the condition of the vaginal mucosa in response to treatment.
(§2) Upon presentation to the clinic for each visit, a vaginal cytology specimen was obtained. Patients then inserted the tablets. […] The blood samples obtained at 30 minutes before insertion, and at 6, 12, and 24 hours after insertion were also used to determine the FSH concentration via immunoradiometric assay.
Data for area under the curve and maximal concentration were converted to a logarithmic scale, and changes from first dose (at the baseline visit) in the logarithmic values were estimated using 95% confidence intervals derived from paired t-tests. […] Differences within treatment groups in FSH concentration were determined using the Wilcoxon signed rank test based on changes from baseline in mean concentrations at weeks 2 and 12. Mean concentrations were defined as the average concentrations obtained at 30 minutes before tablet insertion and 6, 12, and 24 hours after insertion.

endometrium = assay: Endometrial biopsy at end of study, Example 3; format: in vivo, postmenopausal women
Method: (§3) Efficacy was measured with composite scores of vaginal symptoms (dryness, soreness, and irritation) and vaginal health (secretions, epithelial integrity, surface thickness, and pH). Vaginal and urethral cytology analyses were also performed, and the vaginal maturation value was determined. Safety assessments included endometrial biopsies.
(§4) All vaginal tablets were identical in appearance. Patients inserted 1 tablet daily for 14 days. Thereafter, patients inserted 1 tablet twice per week (Sunday and Thursday) for the remainder of the trial. Patients were to insert the tablets at the same time each day (preferably at bedtime). Patients were evaluated for efficacy and safety at Week—4 (screening), Week 0 (baseline), and Weeks 2, 7, and 12.
(§5) Vaginal and urethral cell samples were harvested and analyzed by independent cytologists to determine the percentages of parabasal, intermediate, and superficial cells. Maturation values were calculated according to the following equation: maturation value=1.0×[superficial cells, %]+0.5×[intermediate cells, %] Endometrial biopsies were performed at the end of the study in patients with intact uteri. The number of patients with abnormal biopsies was compared between treatment groups.

[2] = system: superficial vaginal cells; assay: Vaginal cytology, percentage of superficial cells, Example 3; format: in vivo, postmenopausal women
Method: as §3, §4, §5

[3] = system: superficial vaginal and urethral cells; assay: Subjects by percentages of both superficial vaginal and urethral cells, Example 3; format: in vivo, postmenopausal women
Method: as §4, §5

[4] = system: superficial urethral cells; assay: Urethral cytology, percentage of superficial cells, Example 3; format: in vivo, postmenopausal women
Method: as §3, §4, §5

vaginal mucosal cells = assay: Maturation value of vaginal mucosal cells, Example 2; format: in vivo, postmenopausal women
Method: as §1
After the screening visit, patients received no study treatment during the 4-week run-in period prior to the baseline visit. […] The vaginal tablets were identical in appearance. Patients inserted 1 tablet intravaginally, once daily for the initial 2 weeks of the study and then twice per week (Sunday and Thursday) for the remaining 10 weeks. Patients were instructed to use their medication at a consistent time each day, preferably in the morning.
as §2
The maturation value of vaginal mucosal cells was calculated from the percentages of parabasal, intermediate, and superficial cells according to the following equation: maturation value=0×[parabasal cells, %]+0.5×[intermediate cells, %]+1.0×[superficial cells, %]

[5] = system: postmenopausal women with atrophic vaginitis; assay: Patients with vaginal pH values below 5.5, Example 3; format: in vivo
Method: as §3, §4
Investigators used a severity scale of none, mild, moderate, or severe to assess vaginal health characteristics (secretions, epithelial integrity, surface thickness, color, and pH). Severity categories were assigned ascending scores from 0 (none) to 3 (severe) for analysis. To avoid multiple endpoint issues, composite scores were defined. A composite score for vaginal health was defined as the average of the individual vaginal health characteristic scores. The composite score and the change from baseline for the composite score were examined at each time point. Differences within and between treatment groups were analyzed using an analysis of variance (ANOVA).

vaginal cells = assay: Vaginal maturation value, Example 3; format: in vivo, postmenopausal women; conditions: 25 or 10 μg E2 (active treatment groups), Week 12
Method: as §3, §4, §5

Endometrial biopsy result Abnormal (hyperplasia or carcinoma), number of patients (endometrium; 10 μg E2, Week 12, N = 32): 0
Endometrial biopsy result Abnormal (hyperplasia or carcinoma), percentage of patients (endometrium; 10 μg E2, Week 12, N = 32): 0.0%
Endometrial biopsy result Abnormal (hyperplasia or carcinoma), percentage of patients (endometrium; 25 μg E2, Week 12, N = 32): 3.1%
SMILES: C[C@]12CC[C@@H]3c4ccc(O)cc4CC[C@H]3[C@@H]1CC[C@@H]2O [E2, 17β-estradiol]
Number of patients with mean FSH concentrations below 35 [1]: 3 patients
Mean percentage of superficial vaginal cells ([2]; 10 μg E2, Week 0): 3.1%
Mean change from baseline in percentage of superficial vaginal cells ([2]; 10 μg E2, Week 2): 25.0^a %
Mean percentage of superficial vaginal cells ([2]; 25 μg E2, Week 0): 4.0%
Number of subjects with both superficial vaginal and urethral cells less than or equal to 5% ([3]; 10 μg E2, Week 0): 53 subjects
Number of subjects with increases in percentages of both superficial vaginal and urethral cells ([3]; 10 μg E2, Week 12): 44 subjects
Number of subjects with both superficial vaginal and urethral cells less than or equal to 5% ([3]; 25 μg E2, Week 0): 57 subjects
Number of subjects with increases in percentages of both superficial vaginal and urethral cells ([3]; 25 μg E2, Week 12): 52 subjects
Mean percentage of superficial urethral cells ([4]; 10 μg E2, Week 0): 2.5%
Mean change from baseline in percentage of superficial urethral cells ([4]; 10 μg E2, Week 12): 6.8%
Mean percentage of superficial urethral cells ([4]; 10 μg E2, Week 12): 9.5%
Mean percentage of superficial urethral cells ([4]; 25 μg E2, Week 0): 3.2%
Mean change from baseline in percentage of superficial urethral cells ([4]; 25 μg E2, Week 12): 7.5%
Mean percentage of superficial urethral cells ([4]; 25 μg E2, Week 12): 11.2%
Mean maturation value (vaginal mucosal cells; 10 μg E2, Week 0 (baseline), mean ± SD): 51.0
Number of patients with increases in maturation values from baseline (vaginal mucosal cells; 10 μg E2, Week 12): 14 patients
Number of patients with increases in maturation values from baseline (vaginal mucosal cells; 25 μg E2, Week 12): 13 patients
Mean change from baseline in maturation value (vaginal mucosal cells; 25 μg E2, Week 12, mean ± SD, P ≦ .01): 7.0 ± 8.7^b
Number of patients with vaginal pH values below 5.5 ([5]; 10 μg E2, Week 0): 27/89
Number of patients with vaginal pH values below 5.5 ([5]; 10 μg E2, Week 2): 67/84
Number of patients with vaginal pH values below 5.5 ([5]; 10 μg E2, Week 7): 57/80
Number of patients with vaginal pH values below 5.5 ([5]; 10 μg E2, Week 12): 54/71
Number of patients with vaginal pH values below 5.5 ([5]; 25 μg E2, Week 0): 31/90
Number of patients with vaginal pH values below 5.5 ([5]; 25 μg E2, Week 2): 64/87
Number of patients with vaginal pH values below 5.5 ([5]; 25 μg E2, Week 7): 71/83
Percentage of patients with vaginal pH values below 5.5 ([5]; 25 μg E2, Week 7): 85.5%
Number of patients with vaginal pH values below 5.5 ([5]; 25 μg E2, Week 12): 63/79
Percentage of patients with vaginal pH values below 5.5 ([5]; 25 or 10 μg E2 (active treatment groups), Week 12): 75%
Maturation value (vaginal cells): approximately 60%

Reference: patent US7018992B2, “Hormone composition” (Novo Nordisk A/S, priority 2000, dated 2006)
